Measured values as given in PMC10819888, “Benzimidazole-Based Derivatives as Apoptotic Antiproliferative Agents: Design, Synthesis, Docking, and Mechanistic Studies” (Molecules, 2024).

Legend:
Test in all cases: NCI-60 one-dose assay
Format in all cases: cell-based
UACC-257 = settings: Homo sapiens, UACC-257 (Melanoma), read-out: Cell Inhibition Percent
Description: (§1) The final compounds were submitted to the National Cancer Institute, Bethesda, USA, for screening in vitro for anti-cancer. […] compounds, 4a–j, 5, and 6, were selected according to the Development Therapeutic Program (DTP) protocol. The selected compounds were evaluated for their in vitro cytotoxic activity against a panel of sixty cancer cell lines (NCI-60 cell line panel) derived from six cell lines panel of leukemia, nine cell lines of lung cancer, six cell lines of CNS cancer, seven cell lines of colon cancer, eight cell lines of melanoma, six cell lines of ovarian cancer, eight cell lines of renal cancer, two cell lines of prostate cancer, and eight cell lines of breast cancer, representing the full nine human systems as leukemia, melanoma, and cancers of the lung, colon, brain, breast, ovary, kidney, and prostate.
(§2) The selected compounds 4a–j, 5, and 6 were tested at a single concentration of 10 µM. The screening results for the selected compounds are illustrated in Table 1.
(§3) The NCI anti-cancer screening methodology has been described in detail elsewhere (http://www.dtp.nci.nih.gov, accessed on 20 February 2021). Following the Drug Evaluation Branch protocol, National Cancer Institute, Bethesda, USA, a primary anti-cancer assay was performed on approximately 60 human tumor cell line panels derived from nine neoplastic diseases.

SF-295 = settings: Homo sapiens, SF-295 (CNS cancer), read-out: Cell Inhibition Percent
Description: as §1, §2, §3

MDA-MB-468 = settings: Homo sapiens, MDA-MB-468 (Breast Cancer), read-out: Cell Inhibition Percent
Description: as §1, §2, §3

OVCAR-3 = settings: Homo sapiens, OVCAR-3 (ovarian cancer), read-out: Cell Inhibition Percent
Description: as §1, §2, §3

UACC-62 = settings: Homo sapiens, UACC-62 (Melanoma), read-out: Cell Inhibition Percent
Description: as §1, §2, §3

UO-31 = settings: Homo sapiens, UO-31 (Renal Cancer), read-out: Cell Inhibition Percent
Description: as §1, §2, §3

K-562 = settings: Homo sapiens, K562, K-562 (Leukemia), read-out: Cell Inhibition Percent
Description: as §1, §2, §3

HOP-92 = settings: Homo sapiens, HOP-92 (Non-Small Cell Lung Cancer), read-out: Cell Inhibition Percent
Description: as §1, §2, §3

U251 = settings: Homo sapiens, U-251, U251 (CNS cancer), read-out: Cell Inhibition Percent
Description: as §1, §2, §3

HCT-116 = settings: Homo sapiens, HCT-116 (Colon Cancer), read-out: Cell Inhibition Percent
Description: as §1, §2, §3

NCI-H322M = settings: Homo sapiens, NCI-H322M (Non-Small Cell Lung Cancer), read-out: Cell Inhibition Percent
Description: as §1, §2, §3

HCC-2998 = settings: Homo sapiens, HCC-2998 (Colon Cancer), read-out: Cell Inhibition Percent
Description: as §1, §2, §3

KM12 = settings: Homo sapiens, KM12 (Colon Cancer), read-out: Cell Inhibition Percent
Description: as §1, §2, §3

CCRF-CEM = settings: Homo sapiens, CCRF-CEM (Leukemia), read-out: Cell Inhibition Percent
Description: as §1, §2, §3

OVCAR-8 = settings: Homo sapiens, OVCAR-8 (ovarian cancer), read-out: Cell Inhibition Percent
Description: as §1, §2, §3

RPMI-8226 = settings: Homo sapiens, RPMI-8226 (Leukemia), read-out: Cell Inhibition Percent
Description: as §1, §2, §3

MDA-MB-435 = settings: Homo sapiens, MDA-MB-435 (Melanoma), read-out: Cell Inhibition Percent
Description: as §1, §2, §3

SK-OV-3 = settings: Homo sapiens, SK-OV-3 (ovarian cancer), read-out: Cell Inhibition Percent
Description: as §1, §2, §3

SK-MEL-28 = settings: Homo sapiens, SK-MEL-28 (Melanoma), read-out: Cell Inhibition Percent
Description: as §1, §2, §3

CAKI-1 = settings: Homo sapiens, CAKI-1 (Renal Cancer), read-out: Cell Inhibition Percent
Description: as §1, §2, §3

786-0 = settings: Homo sapiens, 786-0 (Renal Cancer), read-out: Cell Inhibition Percent
Description: as §1, §2, §3

SR = settings: Homo sapiens, SR (Leukemia), read-out: Cell Inhibition Percent
Description: as §1, §2, §3

IGROV1 = settings: Homo sapiens, IGROV-1, IGROV1 (ovarian cancer), read-out: Cell Inhibition Percent
Description: as §1, §2, §3

SF-539 = settings: Homo sapiens, SF-539 (CNS cancer), read-out: Cell Inhibition Percent
Description: as §1, §2, §3

OVCAR-4 = settings: Homo sapiens, OVCAR-4 (ovarian cancer), read-out: Cell Inhibition Percent
Description: as §1, §2, §3

PC-3 = settings: Homo sapiens, PC-3 (Prostate Cancer), read-out: Cell Inhibition Percent
Description: as §1, §2, §3

OVCAR-5 = settings: Homo sapiens, OVCAR-5 (ovarian cancer), read-out: Cell Inhibition Percent
Description: as §1, §2, §3

COLO 205 = settings: Homo sapiens, COLO 205 (Colon Cancer), read-out: Cell Inhibition Percent
Description: as §1, §2, §3

RXF 393 = settings: Homo sapiens, RXF 393 (Renal Cancer), read-out: Cell Inhibition Percent
Description: as §1, §2, §3

SNB-75 = settings: Homo sapiens, SNB-75 (CNS cancer), read-out: Cell Inhibition Percent
Description: as §1, §2, §3

HCT-15 = settings: Homo sapiens, HCT-15 (Colon Cancer), read-out: Cell Inhibition Percent
Description: as §1, §2, §3

| SMILES | inhibition at 10 µM (UACC-257) [%] | inhibition at 10 µM (SF-295) [%] | inhibition at 10 µM (MDA-MB-468) [%] | inhibition at 10 µM (OVCAR-3) [%] | inhibition at 10 µM (UACC-62) [%] | inhibition at 10 µM (UO-31) [%] | inhibition at 10 µM (K-562) [%] | inhibition at 10 µM (HOP-92) [%] | inhibition at 10 µM (U251) [%] | inhibition at 10 µM (HCT-116) [%] | inhibition at 10 µM (NCI-H322M) [%] | inhibition at 10 µM (HCC-2998) [%] | inhibition at 10 µM (KM12) [%] | inhibition at 10 µM (CCRF-CEM) [%] | inhibition at 10 µM (OVCAR-8) [%] | inhibition at 10 µM (RPMI-8226) [%] | inhibition at 10 µM (MDA-MB-435) [%] | inhibition at 10 µM (SK-OV-3) [%] | inhibition at 10 µM (SK-MEL-28) [%] | inhibition at 10 µM (CAKI-1) [%] | other results |
| --- | --- | --- | --- | --- | --- | --- | --- | --- | --- | --- | --- | --- | --- | --- | --- | --- | --- | --- | --- | --- | --- |
| COc1ccc(C=NNC(=O)c2ccc3[nH]c(-c4ccc(Cl)cc4)nc3c2)cc1 [Compound 4g, N′-(4-Methoxybenzylidene)-2-(4-chlorophenyl)-1H-benzimidazole-5-carbohydrazide] | 45.6 | 139 | 75.8 | 79.9 | 69.1 | 18.1 | 68.1 | 64 | 92 | 81 | 44.1 | 48.9 | 82.7 | 34.7 | 68.7 | 40.8 | 31.5 | 27.7 | 87.5 | 39.5 | inhibition at 10 µM (786-0): 96.8%; inhibition at 10 µM (SR): 99.3%; inhibition at 10 µM (IGROV1): 85.4%; inhibition at 10 µM (SF-539): 57.4%; inhibition at 10 µM (OVCAR-4): 131%; inhibition at 10 µM (PC-3): 104%; inhibition at 10 µM (OVCAR-5): 22.7%; inhibition at 10 µM (COLO 205): 77.1%; inhibition at 10 µM (RXF 393): 56.2%; inhibition at 10 µM (SNB-75): 8.15%; inhibition at 10 µM (HCT-15): 42.5% |
| COc1cc(/C=N/NC(=O)c2ccc3[nH]c(-c4ccc(Cl)cc4)nc3c2)cc(OC)c1OC [Compound 4h, N′-(3,4,5-Trimethoxybenzylidene)-2-(4-chlorophenyl)-1H-benzimidazole-5 carbohydrazide] | 45.6 | 56 | 0 | 38.4 | 71.3 | 11.7 | 67.3 | 28.3 | 46.8 | 63.8 | 12.4 | 20 | 38.2 | 63.4 | 39.5 | 80.1 | 36 | 12.2 | 53.5 | 24 | inhibition at 10 µM (786-0): 48.8%; inhibition at 10 µM (SR): 54.3%; inhibition at 10 µM (IGROV1): 31.6%; inhibition at 10 µM (SF-539): 56.2%; inhibition at 10 µM (OVCAR-4): 0%; inhibition at 10 µM (PC-3): 40.1%; inhibition at 10 µM (OVCAR-5): 0%; inhibition at 10 µM (COLO 205): 54.3%; inhibition at 10 µM (RXF 393): 63.7%; inhibition at 10 µM (SNB-75): 13.4%; inhibition at 10 µM (HCT-15): 3.98% |
| O=C(N/N=C/c1ccc(O)cc1)c1ccc2[nH]c(-c3ccc(Cl)cc3)nc2c1 [Compound 4i, N′-(4-Hydroxybenzylidene)-2-(4-chlorophenyl)-1H-benzimidazole-5-carbohydrazide] | 0 | 0 | 0 | 0 | 5.2 | 15.9 | 0.25 | 0 | 0 | 0 | 0.47 | 0 | 2.85 | 13.6 | 0 | 1.52 | 0 | 5.09 | 0 | 1.91 | inhibition at 10 µM (786-0): 0%; inhibition at 10 µM (SR): 2.26%; inhibition at 10 µM (IGROV1): 17%; inhibition at 10 µM (SF-539): 1.95%; inhibition at 10 µM (OVCAR-4): 0%; inhibition at 10 µM (PC-3): 0%; inhibition at 10 µM (OVCAR-5): 0%; inhibition at 10 µM (COLO 205): 0.44%; inhibition at 10 µM (RXF 393): 0%; inhibition at 10 µM (SNB-75): 0%; inhibition at 10 µM (HCT-15): 0% |
